For one assay, the system named is EGFR-Del19/T790M/C797S. Kind of assay: EGFR degradation HTRF assay in H1975-clone #28 cells. Format: cell-based. The following applies: H1975-clone #28 (Del19/T790M/C797S) cells, 16 h treatment; for DC50: IC50 (DC50), read-out: DC50(nM) H1975 # 28 DTC; for Dmax (%) H1975 # 28 DTC: maximum percentage of inhibition (degradation). Put shortly: (§1)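 H1975 clones with endogenous EGFR knocked out, homozygously expressing lentiviral L858R/T790M/C797S (#25) or Del19/T790M/C797S (#28), treated 16 h at 37° C with 8 doses from 10 uM, 5-fold, in 0.2% DMSO. EGFR in lysates measured by HTRF overnight; DC50 from four-parameter fit of % degradation.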

The next assay deals with T1, EGFR-L858R/T790M/C797S (Homo sapiens, UniProt P00533, C797S/L858R/T790M).
T1 construct: expressed in transfected cells; host or cells: H1975-clone #25 (lentiviral over-expression, endogenous EGFR knocked out)
As to the kind of experiment: EGFR degradation HTRF assay in H1975-clone #25 cells. It is filed as cell-based. The following applies: 16 h treatment; for DC50: H1975-clone #25 (L858R/T790M/C797S) cells, IC50 (DC50), read-out: DC50(nM) H1975 # 25-LTC; for Dmax: NCI-H1975, H1975-clone #25 (L858R/T790M/C797S) cells, maximum percentage of inhibition (degradation), read-out: Dmax (%) H1975 # 25-LTC. In short, it runs like this:
as §1

T1 sequence (P00533 25-1210 T790M/C797S/L858R): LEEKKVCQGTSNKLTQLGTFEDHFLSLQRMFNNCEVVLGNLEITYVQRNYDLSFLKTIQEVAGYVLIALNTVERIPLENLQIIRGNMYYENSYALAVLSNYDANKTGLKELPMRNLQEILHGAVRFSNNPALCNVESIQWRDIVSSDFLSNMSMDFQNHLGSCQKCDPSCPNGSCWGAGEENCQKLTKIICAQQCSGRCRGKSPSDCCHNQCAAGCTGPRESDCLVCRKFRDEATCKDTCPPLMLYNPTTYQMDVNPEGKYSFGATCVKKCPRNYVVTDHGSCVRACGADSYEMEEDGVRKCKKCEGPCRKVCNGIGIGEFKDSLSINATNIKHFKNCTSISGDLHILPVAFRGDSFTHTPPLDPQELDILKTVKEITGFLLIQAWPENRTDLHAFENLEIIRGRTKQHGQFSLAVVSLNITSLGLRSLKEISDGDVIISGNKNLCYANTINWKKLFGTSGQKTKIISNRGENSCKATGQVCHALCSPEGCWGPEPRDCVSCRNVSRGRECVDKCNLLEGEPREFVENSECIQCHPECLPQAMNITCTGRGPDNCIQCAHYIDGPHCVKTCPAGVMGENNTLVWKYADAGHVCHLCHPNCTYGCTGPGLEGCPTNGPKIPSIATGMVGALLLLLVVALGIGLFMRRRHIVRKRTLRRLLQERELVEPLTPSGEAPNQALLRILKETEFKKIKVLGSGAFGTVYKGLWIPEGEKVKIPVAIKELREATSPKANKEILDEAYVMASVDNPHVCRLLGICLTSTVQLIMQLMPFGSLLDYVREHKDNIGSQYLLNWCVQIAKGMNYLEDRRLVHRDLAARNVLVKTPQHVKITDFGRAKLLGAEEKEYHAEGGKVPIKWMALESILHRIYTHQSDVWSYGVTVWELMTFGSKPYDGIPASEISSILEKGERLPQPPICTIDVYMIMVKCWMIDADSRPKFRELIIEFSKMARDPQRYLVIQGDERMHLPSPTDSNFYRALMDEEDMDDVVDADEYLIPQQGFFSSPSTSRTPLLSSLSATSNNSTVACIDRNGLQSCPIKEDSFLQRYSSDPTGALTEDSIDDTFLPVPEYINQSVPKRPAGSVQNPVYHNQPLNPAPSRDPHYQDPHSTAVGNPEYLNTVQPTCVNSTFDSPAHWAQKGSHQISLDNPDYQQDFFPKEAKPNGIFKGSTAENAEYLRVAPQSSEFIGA

As for `CCc1cc(Nc2ncc(Br)c(Nc3ccc4nc(C)c(F)cc4c3P(C)(C)=O)n2)c(OC)cc1N1CCC2(CCN(CC3CCN(c4cc5c(cc4F)C(=O)N(C4CCC(=O)NC4=O)C5=O)CC3)CC2)CC1` (stereo not shown) [Example 47, 5-(4-((9-(4-((5-bromo-4-((5-(dimethylphosphoryl)-3-fluoro-2-methylquinolin-6-yl)amino)pyrimidin-2-yl)amino)-2-ethyl-5-methoxyphenyl)-3,9-diazaspiro[5.5]undecan-3-yl)methyl)piperidin-1-yl)-2-(2,6-dioxopiperidin-3-yl)-6-fluoroisoindoline-1,3-dione], in the assay with EGFR-Del19/T790M/C797S, the DC50 worked out at 14.3 nM and the “Dmax (%) H1975 # 28 DTC” value came to 73%. In addition, on EGFR-L858R/T790M/C797S, the DC50 was 16 nM and the Dmax came out at 88%.

Regarding `CCc1cc(Nc2ncc(Br)c(Nc3ccc4nc(C)c(F)cc4c3P(C)(C)=O)n2)c(OC)cc1N1CCC2(CCN(CC3CCN(c4ccc5c(c4)CN(C4CCC(=O)NC4=O)C5=O)CC3)CC2)CC1` (stereo not shown) [Example 48, 3-(5-(4-((9-(4-((5-bromo-4-((5-(dimethylphosphoryl)-3-fluoro-2-methylquinolin-6-yl)amino)pyrimidin-2-yl)amino)-2-ethyl-5-methoxyphenyl)-3,9-diazaspiro[5.5]undecan-3-yl)methyl)piperidin-1-yl)-1-oxoisoindolin-2-yl)piperidine-2,6-dione], in the assay with EGFR-Del19/T790M/C797S, the DC50 came to 1.7 nM and the “Dmax (%) H1975 # 28 DTC” value amounted to 83%. Also, on EGFR-L858R/T790M/C797S, the DC50 worked out at 2.8 nM and the Dmax is 90%.

For `CCc1cc(Nc2ncc(Br)c(Nc3ccc4nc(C)c(F)cc4c3P(C)(C)=O)n2)c(OC)cc1N1CCC2(CCN(C[C@@H]3CCN(c4ccc5c(c4)C(=O)N(C4CCC(=O)NC4=O)C5=O)C3)CC2)CC1` (stereo partly drawn) [Example 49, 5-((S)-3-((9-(4-((5-bromo-4-((5-(dimethylphosphoryl)-3-fluoro-2-methylquinolin-6-yl)amino)pyrimidin-2-yl)amino)-2-ethyl-5-methoxyphenyl)-3,9-diazaspiro[5.5]undecan-3-yl)methyl)pyrrolidin-1-yl)-2-(2,6-dioxopiperidin-3-yl)isoindoline-1,3-dione], in the assay on EGFR-Del19/T790M/C797S, the DC50 was 3.8 nM and the “Dmax (%) H1975 # 28 DTC” value is recorded as 82%. In addition, on EGFR-L858R/T790M/C797S, the DC50 was 7.6 nM and the Dmax amounted to 89%.

As to `CCc1cc(Nc2ncc(Br)c(Nc3ccc4nc(C)c(F)cc4c3P(C)(C)=O)n2)c(OC)cc1N1CCC2(CC1)CCN(C1CCN(c3cccc4c3n(C)c(=O)n4C3CCC(=O)NC3=O)CC1)CC2` (stereo not shown) [Example 51, 3-(4-(4-(9-(4-((5-bromo-4-((5-(dimethylphosphoryl)-3-fluoro-2-methylquinolin-6-yl)amino)pyrimidin-2-yl)amino)-2-ethyl-5-methoxyphenyl)-3,9-diazaspiro[5.5]undecan-3-yl)piperidin-1-yl)-3-methyl-2-oxo-2,3-dihydro-1H-benzo[d]imidazol-1-yl)piperidine-2,6-dione], in the assay on EGFR-Del19/T790M/C797S, the DC50 worked out at 2.5 nM and the “Dmax (%) H1975 # 28 DTC” value amounted to 77%. Also, on EGFR-L858R/T790M/C797S, the DC50 was 3.1 nM and the Dmax came out at 89%.

For the compound `CCc1cc(Nc2ncc(Br)c(Nc3ccc4nc(C)c(F)cc4c3P(C)(C)=O)n2)c(OC)cc1N1CCC2(CC1)CCN(C1CCN(c3cccc4c3C(C)(C)C(=O)N4C3CCC(=O)NC3=O)CC1)CC2` (stereo not shown) [Example 52, 3-(4-(4-(9-(4-((5-bromo-4-((5-(dimethylphosphoryl)-3-fluoro-2-methylquinolin-6-yl)amino)pyrimidin-2-yl)amino)-2-ethyl-5-methoxyphenyl)-3,9-diazaspiro[5.5]undecan-3-yl)piperidin-1-yl)-3,3-dimethyl-2-oxoindolin-1-yl)piperidine-2,6-dione], in the assay with EGFR-Del19/T790M/C797S, the DC50 turned out to be 3.4 nM and the “Dmax (%) H1975 # 28 DTC” value is reported as 79%. In addition, at EGFR-L858R/T790M/C797S, the DC50 turned out to be 3.8 nM and the Dmax was 90%.

Take `CCOc1cc(N2CCC(N3CCN(C4CCN(c5cc(F)c([C@H]6CCC(=O)NC6=O)c(F)c5)CC4)CC3)CC2)c(CC)cc1Nc1ncc(Cl)c(Nc2ccc3nc(C)c(F)cc3c2P(C)(C)=O)n1` [Example 54, (R)-3-(4-(4-(4-(1-(4-((5-chloro-4-((5-(dimethylphosphoryl)-3-fluoro-2-methylquinolin-6-yl)amino)pyrimidin-2-yl)amino)-5-ethoxy-2-ethylphenyl)piperidin-4-yl)piperazin-1-yl)piperidin-1-yl)-2,6-difluorophenyl)piperidine-2,6-dione]: in the assay with EGFR-Del19/T790M/C797S, the DC50 is 3.6 nM and the “Dmax (%) H1975 # 28 DTC” value came out at 86%. Also, on EGFR-L858R/T790M/C797S, the DC50 is 3.6 nM and the Dmax was 88%.

For the compound `CCc1ncc2c(P(C)(C)=O)c(Nc3nc(Nc4cc(CC)c(N5CCC(N6CC(CN7CCC(c8cc(F)c([C@H]9CCC(=O)NC9=O)c(F)c8)CC7)C6)CC5)cc4OC)ncc3Br)ccc2n1` [Example 55, (R)-3-(4-(1-((1-(1-(4-((5-bromo-4-((5-(dimethylphosphoryl)-2-ethylquinazolin-6-yl)amino)pyrimidin-2-yl)amino)-2-ethyl-5-methoxyphenyl)piperidin-4-yl)azetidin-3-yl)methyl)piperidin-4-yl)-2,6-difluorophenyl)piperidine-2,6-dione], in the assay with EGFR-Del19/T790M/C797S, the DC50 was determined as 5.6 nM and the “Dmax (%) H1975 # 28 DTC” value is listed as 91%. Also, at EGFR-L858R/T790M/C797S, the DC50 was 2.4 nM and the maximal degradation (Dmax) is 92%.

Turning to `CCc1cc(Nc2ncc(Br)c(Nc3ccc4nc(C)c(F)cc4c3P(C)(C)=O)n2)c(OC)cc1N1CCC(N2CC(CN3CCC(c4cc(F)c([C@H]5CCC(=O)NC5=O)c(F)c4)CC3)C2)CC1` [Example 56, (R)-3-(4-(1-((1-(1-(4-((5-bromo-4-((5-(dimethylphosphoryl)-3-fluoro-2-methylquinolin-6-yl)amino)pyrimidin-2-yl)amino)-2-ethyl-5-methoxyphenyl)piperidin-4-yl)azetidin-3-yl)methyl)piperidin-4-yl)-2,6-difluorophenyl)piperidine-2,6-dione], in the assay on EGFR-Del19/T790M/C797S, the DC50 amounted to 8.2 nM and the “Dmax (%) H1975 # 28 DTC” value stood at 86%. Further, on EGFR-L858R/T790M/C797S, the DC50 amounted to 5.6 nM and the Dmax was 90%.

On to `CCOc1cc(N2CCC(N3CCC4(CC3)CN(c3cc(F)c([C@H]5CCC(=O)NC5=O)c(F)c3)C4)CC2)c(CC)cc1Nc1ncc(Cl)c(Nc2ccc3nc(C)c(F)cc3c2P(C)(C)=O)n1` [Example 57, (R)-3-(4-(7-(1-(4-((5-chloro-4-((5-(dimethylphosphoryl)-3-fluoro-2-methylquinolin-6-yl)amino)pyrimidin-2-yl)amino)-5-ethoxy-2-ethylphenyl)piperidin-4-yl)-2,7-diazaspiro[3.5]nonan-2-yl)-2,6-difluorophenyl)piperidine-2,6-dione], for which, in the assay on EGFR-Del19/T790M/C797S, the DC50 was found to be 4.5 nM and the “Dmax (%) H1975 # 28 DTC” value turned out to be 88%. At EGFR-L858R/T790M/C797S, the DC50 worked out at 2.7 nM and the Dmax turned out to be 90%.

As to `CCc1ccc2c(P(C)(C)=O)c(Nc3nc(Nc4cc(CC)c(N5CCC(N6CC7(CCN(c8cc(F)c([C@H]9CCC(=O)NC9=O)c(F)c8)CC7)C6)CC5)cc4OC)ncc3Br)ccc2n1` [Example 58, (R)-3-(4-(2-(1-(4-((5-bromo-4-((5-(dimethylphosphoryl)-2-ethylquinolin-6-yl)amino)pyrimidin-2-yl)amino)-2-ethyl-5-methoxyphenyl)piperidin-4-yl)-2,7-diazaspiro[3.5]nonan-7-yl)-2,6-difluorophenyl)piperidine-2,6-dione], in the assay with EGFR-Del19/T790M/C797S, the DC50 turned out to be 1.6 nM and the “Dmax (%) H1975 # 28 DTC” value is 91%. Moreover, at EGFR-L858R/T790M/C797S, the DC50 was 3.1 nM and the Dmax is 91%.

As for `CCOc1cc(N2CCC(N3CC4(CCN(c5cc(F)c([C@H]6CCC(=O)NC6=O)c(F)c5)CC4)C3)CC2)c(CC)cc1Nc1ncc(Cl)c(Nc2ccc3nc(C)c(F)cc3c2P(C)(C)=O)n1` [Example 59, (R)-3-(4-(2-(1-(4-((5-chloro-4-((5-(dimethylphosphoryl)-3-fluoro-2-methylquinolin-6-yl)amino)pyrimidin-2-yl)amino)-5-ethoxy-2-ethylphenyl)piperidin-4-yl)-2,7-diazaspiro[3.5]nonan-7-yl)-2,6-difluorophenyl)piperidine-2,6-dione], in the assay on EGFR-Del19/T790M/C797S, the DC50 was determined as 3.8 nM and the “Dmax (%) H1975 # 28 DTC” value worked out at 87%. Further, on EGFR-L858R/T790M/C797S, the DC50 stood at 2.7 nM and the Dmax worked out at 92%.

As to `CCc1cc(Nc2ncc(Br)c(Nc3ccc4nc(C)c(F)cc4c3P(C)(C)=O)n2)c(OC)cc1N1CCC(N2CC3(CN(c4cc(F)c([C@H]5CCC(=O)NC5=O)c(F)c4)C3)C2)CC1` [Example 60, (R)-3-(4-(6-(1-(4-((5-bromo-4-((5-(dimethylphosphoryl)-3-fluoro-2-methylquinolin-6-yl)amino)pyrimidin-2-yl)amino)-2-ethyl-5-methoxyphenyl)piperidin-4-yl)-26-diazaspiro[3.3]heptan-2-yl)-2,6-difluorophenyl)piperidine-2,6-dione], in the assay with EGFR-Del19/T790M/C797S, the DC50 came out at 0.5 nM and the “Dmax (%) H1975 # 28 DTC” value was 95%. In addition, on EGFR-L858R/T790M/C797S, the DC50 came to 1.1 nM and the Dmax turned out to be 95%.

For the compound `CCc1cc(Nc2ncc(Cl)c(Nc3ccc4nc(C)c(F)cc4c3P(C)(C)=O)n2)c(OC)cc1N1CC2(C1)CN(C1CCN(c3cc(F)c([C@H]4CCC(=O)NC4=O)c(F)c3)CC1)C2` [Example 61, (R)-3-(4-(4-(6-(4-((5-chloro-4-((5-(dimethylphosphoryl)-3-fluoro-2-methylquinolin-6-yl)amino)pyrimidin-2-yl)amino)-2-ethyl-5-methoxyphenyl)-2,6-diazaspiro[3.3]heptan-2-yl)piperidin-1-yl)-2,6-difluorophenyl)piperidine-2,6-dione], in the assay on EGFR-Del19/T790M/C797S, the DC50 amounted to 0.9 nM and the “Dmax (%) H1975 # 28 DTC” value turned out to be 94%. For the same compound, at EGFR-L858R/T790M/C797S, the DC50 is 1.2 nM and the Dmax was 94%.

Values taken from patent US20240368203A1, “DEGRADATION OF (EGFR) BY CONJUGATION OF EGFR INHIBITORS WITH E3 LIGASE LIGAND AND METHODS OF USE” (BeiGene, Ltd., priority 2022, published 2024).
